Test results from patent US9421175B2, “Prevention of retinopathy by inhibition of the visual cycle” (priority 2004, dated 2016).

Tests used:
Assay type in all cases: in vivo, rat
Sprague-Dawley rats [1] = experiment: Resistance to retinal ischemia 18 h after intraperitoneal isotretinoin (scotopic ERG 1 week later)
Description: Purpose: To evaluate the efficacy of isotretinoin in the prevention of retinal functional loss following 1 h ischemia induced by elevation of the intraocular pressure beginning 18 h after the intraperitoneal administration of isotretinoin.
(§1) Material and methods: Intraperitoneal isotretinoin 5 mg/kg in dimethyl sulfoxide (DMSO) was given to 6 Sprague-Dawley rats 18 h before intraocular pressure elevation during general anesthesia using cannulation of the anterior chamber in one eye and infusion of balanced saline solution at a pressure of 110 mmHg. The fellow eye was not subjected to ischemia. The animals were kept in ambient room light before and during ischemia. Retinal function was assessed 1 week later by scotopic and mesopic full-field electroretinography (ERG). The study adhered to the ARVO resolution on animal welfare.

rats [2] = experiment: Experimental retinal vein occlusion, blood-retina barrier permeability by vitreous fluorometry; conditions: i.p. isotretinoin 5 mg/mild in DMSO for five days before examination, 14 days after photocoagulation; 7 rats; p<0.012
Description: Purpose: To assess the effect of isotretinoin on the integrity of the blood-retina barrier in experimental retinal vein occlusion. Material and methods: Occlusion of all retinal veins near the rim of the optic nerve head was induced by laser photocoagulation in 14 rats. Blood-retina barrier permeability was measured using vitreous fluorometry 2 weeks later. In 7 rats, intraperitoneal isotretinoin 5 mg/mild in dimethyl sulfoxide (DMSO) was administered for five days before the examination of vascular leakage 14 days after photocoagulation. The study adhered to the ARVO resolution on animal welfare.

Sprague-Dawley rats [3] = experiment: Resistance to retinal ischemia 1 h after intraperitoneal isotretinoin (scotopic ERG 1 week later); conditions: isotretinoin 5 mg/kg i.p. in DMSO 1 h before 1 h ischemia (IOP 110 mmHg), 5 treated rats
Description: Purpose: To evaluate the efficacy of isotretinoin in the prevention of retinal functional loss following 1 h of ocular ischemia induced by elevation of the intraocular pressure beginning 1 h after the intraperitoneal administration of isotretinoin.
as §1, with “Of 12 Sprague-Dawley rats, 7 received intraperitoneal saline injection and 5 received intraperitoneal” for “Intraperitoneal”, “1” for “was given to 6 Sprague-Dawley rats 18”, “full anaesthesia” for “general anesthesia”

rats [4] = experiment: Retinal vessel diameter after intravitreal isotretinoin (digital fundus photography); conditions: single intravitreal injection of isotretinoin 2.5 μg in 10 μl DMSO; 6 h later, dark adapted; 4 eyes; SD 4.2%; p=0.04 vs placebo
Description: Purpose: To assess the effect of intravitreal isotretinoin on retinal vessel diameters in rats, the vein diameter acting as a marker of retinal flow and metabolism.
Methods: In 6 animals, one eye received a single intravitreal injection of isotretinoin 2.5 μg in 10 μl dimethyl sulfoxide (DMSO). The fellow eye received a placebo injection of 10 μl DMSO. Retinal vessel diameter was recorded 6 h later in both eyes after the rats had dark adapted using digital fundus photography in red illumination and assessed using computerized image analysis. All procedures were performed in general anesthesia and the study adhered to the ARVO resolution on animal welfare.

Question: With `CC1=C(/C=C/C(C)=C/C=C/C(C)=C\C(=O)O)C(C)(C)CCC1` [isotretinoin, 13-cis-retinoic acid] as the compound, how does the “eyes subjected to ischemia with normal scotopic ERG amplitudes” value (Sprague-Dawley rats [1]; isotretinoin 5 mg/kg i.p. in DMSO 18 h before 1 h ischemia (IOP 110 mmHg), ERG 1 week later, 6 treated rats) read?
Answer: 6 eyes

Question: What about the “scotopic ERG amplitudes” value (Sprague-Dawley rats [1]; isotretinoin 5 mg/kg i.p. in DMSO 18 h before 1 h ischemia, eyes subjected to ischemia, 1 week after ischemia) of the same compound?
Answer: 60-120 μV

Question: What about the “retinal vascular leakage compared to untreated animals” value (rats [2]) of the same compound?
Answer: lower

Question: What about the “animals with flat ERG, of 5 eyes subjected to ischemia” value (Sprague-Dawley rats [3]) of the same compound?
Answer: 2 animals

Question: And the “animals with intact scotopic ERG, of 5 eyes subjected to ischemia” value (Sprague-Dawley rats [3])?
Answer: 3 animals

Question: And the “change in retinal vein diameter” value (rats [4])?
Answer: −9%
